The values below come from patent US6569894B1, “Arylalkylbenzofuran derivatives as melatonergic agents” (Bristol-Myers Squibb Company, priority 2001, dated 2003).

For one series, the target named is T1, ML1a receptor (Homo sapiens, UniProt P48039).
T1 construct: expressed in transfected cells; pcDNA3)
The series is described as follows: Melatonergic receptor binding activity, 2-[125I]-iodomelatonin, ML1a. The conditions noted are these: membrane homogenates of NIH-3T3 cells, 37° C. for 1 hour. The method, then: (§1) Melatonergic Receptor Binding Activity
(§2) (a) TME=50 mM Tris buffer containing 12.5 mM MgCl2, and 2 mM EDTA, pH 7.4 at 37° C., with concentrated HCl.
(§3) (b) Wash buffer: 20 mM Tris base containing 2 mM MgCl2, pH 7.4 at room temperature.
(§4) (c) 10^−4 M melatonin (10^−5 M final concentration).
(§5) (d) 2-[^125I]-iodomelatonin, […] final concentration.
2. Membrane Homogenates: The melatonin ML1α receptor cDNA was subcloned into pcDNA3 and introduced into NIH-3T3 cells using Lipofectamine. Transformed NIH-3T3 cells resistant to geneticin (G-418) were isolated, and single colonies expressing high levels of 2-[^125I]-iodomelatonin binding were isolated. Cells are maintained in DMEM supplemented with 10% calf serum and G-418 (0.5 g/liter). Cells are grown to confluency in T-175 flasks, scraped using Hank's balanced salt solution, and frozen at −80° C. For preparing membrane homogenates, pellets are thawed on ice, and re-suspended in TME buffer in the presence of 10 μg/ml aprotinin and leupeptin, and 100 μM phenylmethylsulfonylfluoride. The cells were then homogenized using a dounce homogenizer, and centrifuged. The resulting pellet was re-suspended with dounce homogenizer in TME (supplemented with the above protease inhibitors) and frozen. On the day of assay, a small aliquot was thawed on ice and re-suspended in the ice cold TME (1:50-1:100 v/v) and held on ice until assayed.
(§6) 3. Incubation: 37° C. for 1 hour. Reaction is terminated by filtration. Filters were washed 3 times.
(§7) The compounds of the present invention have affinity for receptors of the endogenous pineal hormone, melatonin, as determined in a receptor binding assays described above in Tables I to V for the ML1a and ML1b (human) receptors. Melatonin is involved in the regulation of a variety of biological rhythms and exerts its biological effects via interaction with specific receptors. There is evidence that administration of melatonin agonists are of clinical utility in the treatment of various conditions regulated by melatonin activity. Such conditions include depression, jet-lag, work-shift syndrome, sleep disorders, glaucoma, some disorders associated with reproduction, cancer benign prostatic hyperplasia, immune disorders and neuroendocrine disorders.

A further series addresses T2, ML1b receptor (Homo sapiens, UniProt P49286).
T2 construct: expressed in transfected cells
T2 sequence (P49286 1-362): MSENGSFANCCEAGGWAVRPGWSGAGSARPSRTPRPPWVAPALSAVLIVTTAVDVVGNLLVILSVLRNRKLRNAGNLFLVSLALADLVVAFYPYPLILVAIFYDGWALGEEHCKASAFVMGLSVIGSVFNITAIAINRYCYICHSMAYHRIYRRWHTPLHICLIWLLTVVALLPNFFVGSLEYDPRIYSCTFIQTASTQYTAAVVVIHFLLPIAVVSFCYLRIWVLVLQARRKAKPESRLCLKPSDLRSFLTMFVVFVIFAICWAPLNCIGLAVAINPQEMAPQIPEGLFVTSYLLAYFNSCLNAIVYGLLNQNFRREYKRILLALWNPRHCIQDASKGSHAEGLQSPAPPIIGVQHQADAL
The series is described as follows: Melatonergic receptor binding activity, 2-[125I]-iodomelatonin, ML1b. To be noted: 37° C. for 1 hour. The method, then: as §1, §2, §3, §4, §5, §6, §7

Where only a bound is given, the exact number is not on record here.

T1 sequence (P48039 whole entry): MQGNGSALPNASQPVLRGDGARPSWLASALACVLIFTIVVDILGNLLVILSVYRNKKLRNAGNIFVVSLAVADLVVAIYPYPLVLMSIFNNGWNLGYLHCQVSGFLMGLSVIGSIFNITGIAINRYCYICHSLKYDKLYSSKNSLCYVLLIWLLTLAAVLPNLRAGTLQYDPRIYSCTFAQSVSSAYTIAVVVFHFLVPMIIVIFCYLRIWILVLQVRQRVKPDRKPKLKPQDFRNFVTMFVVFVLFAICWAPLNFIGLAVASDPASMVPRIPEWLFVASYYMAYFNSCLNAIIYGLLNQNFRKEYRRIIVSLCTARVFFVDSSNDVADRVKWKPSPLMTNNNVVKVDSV

By IC50 is commonly meant the concentration that inhibits the measured activity by half. One may read the melting point as the temperature, or range, at which the solid turns liquid. Regarding `CCNC(=O)NCC1CC1c1c(Cl)ccc2c1CC(CCCCc1ccccc1)O2` [Example 48, N-({2-[2R)-5-Chloro-2-(4-phenylbutyl)(2,3-dihydrobenzo[b]furan-4-yl)]-(1R,2R)cyclopropyl}methyl)(ethylamino)carboxamide], the melting point lay in the range of 126 to 128 °C. On ML1a receptor (Table V), this compound had an IC50 of 10 to 250 nM. This compound also had an IC50 on ML1b receptor (Table V) of 10 to 250 nM.

Compound `CC(=O)NCCCc1cccc2c1C[C@H](CCCCc1ccccc1)O2` (stereo in doubt) [Example 1, N-[3-[2-(4-Phenylbutyl)-2,3-dihydrobenzofuran-4-yl]propyl]acetamide] returned a melting point of 40 to 41 °C. This compound had an IC50 at ML1a receptor (Table I) of under 10 nM. On ML1b receptor (Table I), this compound registered an IC50 of 10 to 250 nM.

Regarding `O=C(NCCCc1cccc2oc(CCCCc3ccccc3)cc12)C1CC1` [Example 7, N-[3-[2-(4-Phenylbutyl)benzofuran-4-yl]propyl]cyclopropanecarboxamide], the melting point was 70 to 71 °C. Besides, at ML1a receptor (Table II), the IC50 lay in the range of 10 to 250 nM. In addition, the IC50 at ML1b receptor (Table II) lay in the range of 10 to 250 nM.

For `CC(=O)NC[C@@H]1C[C@H]1c1cccc2c1C[C@@H](CCCCc1ccccc1)O2` [Example 42, N-({2-[(2R)-2-(4-Phenylbutyl)(2,3-dihydrobenzo[b]furan-4-yl)]-(1R,2R)cyclopropyl}methyl)acetamide], the melting point fell in the range of 65 to 66 °C. On ML1a receptor (Table V), this compound had an IC50 of under 10 nM. The compound also came in with an IC50 on ML1b receptor (Table V) of under 10 nM.

`O=C(NCCCc1cccc2c1C[C@H](CCCCc1ccccc1)O2)C1CC1` (stereo in doubt) [Example 5, N-[3-[2-(4-Phenylbutyl)-2,3-dihydrobenzofuran-4-yl]propyl]cyclopropanecarboxamide] returned a melting point of 63 to 64 °C. Also, the 50% inhibitory concentration (IC50) on ML1a receptor (Table I) is under 10 nM. Further, the IC50 on ML1b receptor (Table I) fell in the range of 10 to 250 nM.

On to `CCNC(=O)NC[C@@H]1C[C@H]1c1cccc2c1C[C@@H](CCCCc1ccccc1)O2` [Example 47, N-({2-[(2R)-2-(4-Phenylbutyl)(2,3-dihydrobenzo[b]furan-4-yl)]-(1R,2R)cyclopropyl}methyl)(ethylamino)carboxamide], for which the melting point lay within 69 to 70 °C. At ML1a receptor (Table V), this compound displayed an IC50 of 10 to 250 nM. The compound further gave an IC50 at ML1b receptor (Table V) of 10 to 250 nM.
